Data reported in US8536168B2 (Novartis AG, priority 2007, dated 2013).
Where two headings read alike, the source gives them in different places.

Assays:
[1] = target: mouse Smoothened receptor (Mus musculus, UniProt P56726); test: Smo binding assay, displacement of radio-labeled smoothened agonist, filter binding format (mouse); settings: displacement of small molecule agonist of Smoothened, read-out: Mouse Smo bdg., IC50
Excerpt: A Smo binding assay was developed using radio-labeled smoothened agonist for compound competition.

[2] = target: human Smoothened receptor (Homo sapiens, UniProt Q99835); test: Smo binding assay, displacement of radio-labeled smoothened agonist, filter binding format (human); settings: displacement of small molecule agonist of Smoothened, read-out: Human Smo bdg., IC50
Excerpt: A Smo binding assay was developed using radio-labeled smoothened agonist for compound competition. Table 9 lists the IC50 for displacement of a small molecule agonist of Smoothened determined in a filter binding format for the mouse and human Smoothened receptor.

[3] = test system: Gli-luciferase activity; test: Reporter gene assay (RGA) in TMHh12 cells, antagonism of Gli-luciferase activity in the presence of a Smo agonist; assay type: cell-based
Protocol: Activity of the compounds was evaluated using a reporter gene assay (RGA) in TMHh12 cells.

[4] = 25 nM small molecule Smo agonist, read-out: RGA (25 nM Smo agonist) IC50
[5] = read-out: RGA (1 nM Smo agonist) IC50, 1 nM small molecule Smo agonist

Chain of human Smoothened receptor (Q99835 28-787): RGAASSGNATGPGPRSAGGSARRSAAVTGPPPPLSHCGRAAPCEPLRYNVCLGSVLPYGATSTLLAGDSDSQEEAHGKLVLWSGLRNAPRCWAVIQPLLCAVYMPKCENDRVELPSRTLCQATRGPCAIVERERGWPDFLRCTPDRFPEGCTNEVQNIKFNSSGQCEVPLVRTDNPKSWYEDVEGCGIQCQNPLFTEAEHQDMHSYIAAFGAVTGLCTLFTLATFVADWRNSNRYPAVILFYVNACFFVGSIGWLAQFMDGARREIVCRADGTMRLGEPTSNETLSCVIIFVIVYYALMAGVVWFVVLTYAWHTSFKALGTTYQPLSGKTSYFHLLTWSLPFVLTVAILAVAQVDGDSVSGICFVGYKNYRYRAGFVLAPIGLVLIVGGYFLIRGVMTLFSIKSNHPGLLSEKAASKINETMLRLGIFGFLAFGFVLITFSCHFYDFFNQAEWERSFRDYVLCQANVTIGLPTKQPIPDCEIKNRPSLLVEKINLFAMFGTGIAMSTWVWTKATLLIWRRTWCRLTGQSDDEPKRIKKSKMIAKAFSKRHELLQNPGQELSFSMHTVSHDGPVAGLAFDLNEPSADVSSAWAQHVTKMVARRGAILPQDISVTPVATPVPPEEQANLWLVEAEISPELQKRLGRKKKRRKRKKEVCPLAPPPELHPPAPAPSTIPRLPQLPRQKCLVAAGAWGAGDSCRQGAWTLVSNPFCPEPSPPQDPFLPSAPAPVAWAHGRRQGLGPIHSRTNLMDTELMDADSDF
Chain of mouse Smoothened receptor (P56726 33-793): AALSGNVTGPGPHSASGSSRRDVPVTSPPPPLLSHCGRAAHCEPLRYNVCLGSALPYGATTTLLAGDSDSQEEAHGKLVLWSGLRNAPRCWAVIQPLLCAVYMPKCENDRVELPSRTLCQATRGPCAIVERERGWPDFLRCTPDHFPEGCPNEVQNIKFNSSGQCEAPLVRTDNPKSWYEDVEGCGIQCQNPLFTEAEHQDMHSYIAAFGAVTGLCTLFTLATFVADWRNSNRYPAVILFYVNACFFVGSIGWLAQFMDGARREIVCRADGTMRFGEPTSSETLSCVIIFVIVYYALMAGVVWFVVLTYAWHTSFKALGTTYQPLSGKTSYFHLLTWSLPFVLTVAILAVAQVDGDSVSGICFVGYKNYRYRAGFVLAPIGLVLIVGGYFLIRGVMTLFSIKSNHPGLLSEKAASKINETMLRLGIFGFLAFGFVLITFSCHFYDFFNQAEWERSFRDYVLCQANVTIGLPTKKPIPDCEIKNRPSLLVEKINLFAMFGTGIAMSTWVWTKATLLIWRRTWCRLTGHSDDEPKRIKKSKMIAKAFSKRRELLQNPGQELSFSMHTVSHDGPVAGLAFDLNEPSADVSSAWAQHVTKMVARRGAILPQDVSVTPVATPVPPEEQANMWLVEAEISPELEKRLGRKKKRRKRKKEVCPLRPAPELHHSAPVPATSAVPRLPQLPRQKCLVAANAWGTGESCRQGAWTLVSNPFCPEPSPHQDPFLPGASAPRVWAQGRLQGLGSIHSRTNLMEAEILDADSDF

Row | SMILES | IC50 [1] [nM] | IC50 [2] [nM] | IC50 [3, 4] [nM] | IC50 [3, 5] [nM]
1 | CC(=O)NCc1ccc(N2CCN(c3nnc(Cc4ccccc4)c4ccccc34)CC2)nc1 [Example 70, N-{6-[4-(4-Benzyl-phthalazin-1-yl)-piperazin-1-yl]-pyridin-3-ylmethyl}-acetamide] | 100 to 1000 | 100 to 1000 | 100 to 1000 | < 100
2 | CN(CCO)C(=O)c1ccc(N2CCN(c3nnc(Cc4ccccc4Cl)c4ccccc34)CC2)nc1 [Example 200] | < 100 | < 100 | 100 to 1000 | < 100
3 | N#Cc1ccc(Cn2cc(C3CCN(c4ccc(C(F)(F)F)cn4)CC3)c3ccccc32)cc1 [Example 96] | 100 to 1000 | 100 to 1000 | 100 to 1000 | < 100
4 | CC(C)(O)c1ccc(N2CCN(c3nnc(Cc4ccccc4)c4ccccc34)CC2)nc1 [Example 54a, 2-{6-[4-(4-Benzyl-phthalazin-1-yl)-piperazin-1-yl]-pyridin-3-yl}-propan-2-ol] | < 100 | < 100 | < 100 | < 100
5 | CC(C)OC(=O)NCc1ccc(N2CCN(c3nnc(Cc4ccccc4)c4ccccc34)CC2)nc1 [Example 211] | < 100 | < 100 | 100 to 1000 | < 100
6 | O=C(c1ccc(C(F)(F)F)cc1)N1CCC(c2cn(Cc3ccc(F)cc3)c3ccccc23)CC1 [Example 104] | 1000 to 10000 | 1000 to 10000 | 10000 to 40000 | 1000 to 10000
7 | CCOC(=O)c1ccc(N2CCN(c3nnc(Cc4ccccc4Cl)c4ccccc34)[C@@H](C)C2)nc1 [Example 188] | < 100 | < 100 | 100 to 1000 | < 100
8 | Cc1cc(C)nc(N2CCN(c3nnc(Cc4ccccc4)c4ccccc34)CC2)n1 [Example 48] | < 100 | 100 to 1000 | 1000 to 10000 | < 100
9 | N#Cc1ccc(N2CCN(c3cnc(Cc4cccc(Cl)c4)c4ccccc34)CC2)nc1 [Example 81] | 1000 to 10000 | 10000 to 40000 | 10000 to 40000 | 1000 to 10000
10 | FC(F)(F)c1ccc(N2CCC(c3cn(Cc4ccccc4)c4ccccc34)CC2)nc1 [Example 97] | 100 to 1000 | 100 to 1000 | 1000 to 10000 | < 100
11 | CN(C)Cc1ccc(N2CCN(c3nnc(Cc4ccccc4)c4ccccc34)CC2)nc1 [Example 217, {6-[4-(4-Benzyl-phthalazin-1-yl)-piperazin-1-yl]-pyridin-3-ylmethyl}-dimethyl-amine] | 1000 to 10000 | 1000 to 10000 | 1000 to 10000 | < 100
12 | CN(CCO)C(=O)c1ccc(N2CCN(c3nnc(Cc4ccc(F)cc4)c4ccccc34)CC2)nc1 [Example 198, 6-{4-[4-(4-Fluoro-benzyl)-phthalazin-1-yl]-piperazin-1-yl}-N-(2-hydroxyethyl)-N-methyl-nicotinamide] | < 100 | < 100 | 100 to 1000 | < 100
13 | C[C@@H]1CN(c2ccc(C#N)cn2)CCN1c1nnc(Cc2ccccc2)c2ccccc12 [Example 118] | 100 to 1000 | 100 to 1000 | 1000 to 10000 | 100 to 1000
14 | Cc1cc(N2CCN(c3ccc(C#N)cn3)CC2)nnc1Cc1ccccc1 [Example 87] | 100 to 1000 | 100 to 1000 | – | 100 to 1000
15 | CCC(=O)NCc1ccc(N2CCN(c3nnc(Cc4ccccc4)c4ccccc34)CC2)cc1 [Example 78a] | 100 to 1000 | 100 to 1000 | 100 to 1000 | < 100
16 | CC(C)C(O)c1ccc(N2CCN(c3nnc(Cc4ccccc4)c4ccccc34)CC2)nc1 (centres unmarked) [Example 220] | < 100 | < 100 | < 100 | < 100
17 | CC(C)(O)c1ccc(C2CCN(c3nnc(Cc4ccccc4)c4ccccc34)CC2)cc1 [Example 124] | 100 to 1000 | 100 to 1000 | 1000 to 10000 | < 100
18 | N#Cc1ccc(N2CCN(c3nnc(Cc4ccc(F)cc4)c4c3CCCC4)CC2)nc1 [Example 93b] | 100 to 1000 | 100 to 1000 | 100 to 1000 | 100 to 1000
19 | COCC(=O)NCc1ccc(N2CCN(c3nnc(Cc4ccccc4)c4ccccc34)CC2)nc1 [Example 208] | 100 to 1000 | 100 to 1000 | < 100 | < 100

Row | SMILES | IC50 [1] [nM] | IC50 [2] [nM] | IC50 [3, 4] [nM] | IC50 [3, 5] [nM]
20 | N#Cc1ccc(N2CCCN(c3nnc(Cc4ccccc4)c4ccccc34)CC2)nc1 [Example 19] | < 100 | – | 100 to 1000 | < 100
21 | Cc1cc(Cc2nnc(N3CCN(c4ccc5ccccc5c4)CC3)c3ccccc23)ccn1 [Example 33] | 100 to 1000 | – | 1000 to 10000 | 1000 to 10000
22 | O=C(NCc1ccc(N2CCN(c3nnc(Cc4ccccc4)c4ccccc34)CC2)cc1)OCc1ccccc1 [Example 77] | 100 to 1000 | – | 1000 to 10000 | 100 to 1000
23 | c1ccc2c(N3CCN(c4ccncc4)CC3)nnc(Cc3ccncc3)c2c1 [Example 26] | 1000 to 10000 | – | – | 1000 to 10000
24 | O=C(NCc1ccc(N2CCN(c3nnc(Cc4ccncc4)c4ccccc34)CC2)cc1)OCc1ccccc1 [Example 78] | 1000 to 10000 | – | 10000 to 40000 | 1000 to 10000
25 | c1ccc(C2CCN(c3nnc(Cc4ccncc4)c4ccccc34)CC2)cc1 [Example 13] | 1000 to 10000 | – | 1000 to 10000 | 1000 to 10000
26 | Cc1c(Cc2ccc(F)cc2)nnc(N2CCN(c3ccc(C#N)cn3)CC2)c1C [Example 93a] | < 100 | – | 100 to 1000 | 100 to 1000
27 | COCCN(C)C(=O)c1ccc(N2CCN(c3nnc(Cc4ccccc4)c4ccccc34)CC2)nc1 [Example 54g] | 100 to 1000 | – | 100 to 1000 | < 100
28 | c1ccc2c(N3CCN(c4nnc(Cc5ccncc5)c5ccccc45)CC3)cccc2c1 [Example 36] | 1000 to 10000 | – | 1000 to 10000 | 100 to 1000
29 | COC(=O)c1cnc(N2CCN(c3nnc(Cc4ccccc4)c4ccccc34)C[C@H]2C)cn1 [Example 145, (R)-4-(4-Benzyl-phthalazin-1-yl)-2-methyl-3,4,5,6-tetrahydro-2H-[1,2′]bipyrazinyl-5′-carboxylic acid methyl ester] | – | < 100 | 100 to 1000 | < 100
30 | O=C(c1ccc(N2CCN(c3nnc(Cc4ccccc4)c4ccccc34)CC2)nc1)N1CCC(O)C1 (centres unmarked) [Example 54o] | 100 to 1000 | – | 100 to 1000 | < 100
31 | CN(C)C(=O)c1ccc(N2CCN(c3nnc(Cc4ccc(F)cc4F)c4ccccc34)CC2)nc1 [Example 202] | < 100 | – | 100 to 1000 | < 100
32 | CN(CCO)C(=O)c1ccc(N2CCN(c3nnc(Cc4ccccc4)c4ccccc34)CC2)nc1 [Example 54c, 6-[4-(4-Benzyl-phthalazin-1-yl)-piperazin-1-yl]-N-(2-hydroxy-ethyl)-N-methyl-nicotinamide] | 100 to 1000 | – | 100 to 1000 | < 100
33 | Cc1ccnc(N2CCN(c3nnc(Cc4ccccc4)c4ccccc34)CC2)n1 [Example 47] | < 100 | – | < 100 | < 100
34 | c1ccc(N2CCN(c3nnc(Cc4ccncc4)c4ccccc34)CC2)nc1 [Example 23] | 10000 to 40000 | – | 10000 to 40000 | 1000 to 10000
35 | CCc1cnc(N2CCCN(c3nnc(Cc4ccccc4)c4ccccc34)CC2)nc1 [Example 45] | < 100 | – | 100 to 1000 | < 100
36 | c1ccc(Cc2nnc(N3CCN(c4cccc5ccccc45)CC3)c3ccccc23)cc1 [Example 34] | 1000 to 10000 | – | 1000 to 10000 | 100 to 1000
37 | CCCNC(=O)c1ccc(N2CCN(c3nnc(Cc4ccccc4)c4ccccc34)CC2)nc1 [Example 54n] | < 100 | – | 100 to 1000 | < 100
38 | COC(=O)c1cnc(N2CCN(c3nnc(Cc4ccccc4)c4ccccc34)CC2)nc1 [Example 140] | 100 to 1000 | – | 1000 to 10000 | 1000 to 10000
